Reference: patent US6197963A, “Non-peptide peptidomimetics” (The Trustees of the University of Pennsylvania, priority 1998, dated 2001)
Where two headings read alike, the source gives them in different places. Values belong to the molecule of their own block, whether it stands above or below them. Where a SMILES comes first, the peptide text is derived from it.

Assays:
NK-1 receptor [1] = target: T1, NK-1 receptor (Homo sapiens, UniProt P25103); conditions: cited from earlier work
five hSSTRs = test: Profile / average over the five human SRIF receptor subtypes; type: binding
hSSTR3 = hSSTR3 (Homo sapiens, UniProt P32745); test: Binding at human SRIF receptor subtype hSSTR3; conditions: TABLE 3; read-out: hSSTR 3 Ki
hSSTR3, sequence (P32745 whole entry): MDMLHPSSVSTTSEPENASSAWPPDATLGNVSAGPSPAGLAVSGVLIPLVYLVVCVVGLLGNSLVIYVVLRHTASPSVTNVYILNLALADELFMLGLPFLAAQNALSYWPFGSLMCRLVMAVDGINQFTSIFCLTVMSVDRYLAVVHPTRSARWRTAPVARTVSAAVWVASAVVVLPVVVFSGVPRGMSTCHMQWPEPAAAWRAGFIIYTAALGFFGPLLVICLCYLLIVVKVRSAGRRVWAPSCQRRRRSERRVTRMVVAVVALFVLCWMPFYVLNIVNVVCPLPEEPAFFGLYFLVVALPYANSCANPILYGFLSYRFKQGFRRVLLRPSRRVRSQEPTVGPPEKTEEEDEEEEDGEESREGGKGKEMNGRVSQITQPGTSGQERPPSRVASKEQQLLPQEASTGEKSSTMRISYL

hSSTR5 = hSSTR5 (Homo sapiens, UniProt P35346); test: Binding at human SRIF receptor subtype hSSTR5; conditions: TABLE 3; read-out: hSSTR 5 Ki
hSSTR5, sequence (P35346 whole entry): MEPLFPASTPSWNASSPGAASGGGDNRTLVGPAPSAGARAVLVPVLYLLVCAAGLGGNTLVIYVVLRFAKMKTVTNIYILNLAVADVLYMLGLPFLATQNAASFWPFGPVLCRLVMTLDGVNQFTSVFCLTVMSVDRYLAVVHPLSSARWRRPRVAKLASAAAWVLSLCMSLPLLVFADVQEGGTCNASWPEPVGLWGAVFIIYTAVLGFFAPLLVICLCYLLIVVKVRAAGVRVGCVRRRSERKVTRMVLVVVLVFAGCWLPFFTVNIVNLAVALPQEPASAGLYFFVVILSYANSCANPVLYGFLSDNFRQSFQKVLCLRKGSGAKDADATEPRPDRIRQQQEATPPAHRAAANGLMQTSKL

[2] = tested on: SRIF receptors on AtT-20 cells; conditions: cited from earlier work; for IC50: read-out: IC50 at somatostatin receptors of AtT-20 cells, Nicolaou and Hirschmann, ESCOM 1990; for affinity for the SRIF receptor: relative to O-linked isomers or other glycosides
[3] = tested on: SRIF receptors on AtT-20 cells; test: Binding at SRIF receptors of AtT-20 cells (Examples 104-110, Tables 1-3); set-up: species or system mouse
β2-adrenergic receptor [4] = conditions: cited from earlier work
hSSTR4 = hSSTR4 (Homo sapiens, UniProt P31391); test: Binding at human SRIF receptor subtype hSSTR4; conditions: TABLE 3; read-out: hSSTR 4 Ki
hSSTR4, sequence (P31391 whole entry): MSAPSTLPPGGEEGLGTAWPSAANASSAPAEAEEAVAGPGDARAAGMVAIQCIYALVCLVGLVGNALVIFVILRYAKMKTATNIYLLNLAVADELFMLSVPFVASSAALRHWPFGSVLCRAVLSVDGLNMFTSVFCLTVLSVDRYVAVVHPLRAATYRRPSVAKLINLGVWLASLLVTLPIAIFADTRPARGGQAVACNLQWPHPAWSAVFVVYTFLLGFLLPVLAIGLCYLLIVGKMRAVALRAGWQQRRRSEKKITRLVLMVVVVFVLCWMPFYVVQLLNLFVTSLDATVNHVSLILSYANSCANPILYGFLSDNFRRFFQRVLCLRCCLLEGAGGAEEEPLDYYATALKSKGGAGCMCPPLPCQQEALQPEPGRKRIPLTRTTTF

hSSTR2 = hSSTR2 (Homo sapiens, UniProt P30874); test: Binding at human SRIF receptor subtype hSSTR2; conditions: TABLE 3; read-out: hSSTR 2 Ki
hSSTR2, sequence (P30874 whole entry): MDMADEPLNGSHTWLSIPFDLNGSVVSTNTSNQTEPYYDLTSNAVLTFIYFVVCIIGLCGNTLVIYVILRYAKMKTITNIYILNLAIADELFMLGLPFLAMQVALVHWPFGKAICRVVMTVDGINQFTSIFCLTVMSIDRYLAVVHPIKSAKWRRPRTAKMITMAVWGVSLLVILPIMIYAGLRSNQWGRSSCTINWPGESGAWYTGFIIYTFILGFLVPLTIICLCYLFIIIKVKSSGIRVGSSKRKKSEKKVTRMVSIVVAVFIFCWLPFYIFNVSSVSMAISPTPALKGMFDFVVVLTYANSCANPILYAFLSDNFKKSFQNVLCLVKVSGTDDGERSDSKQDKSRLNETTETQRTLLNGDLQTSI

hSSTR1 = hSSTR1 (Homo sapiens, UniProt P30872); test: Binding at human SRIF receptor subtype hSSTR1; conditions: TABLE 3; read-out: hSSTR 1 Ki
hSSTR1, sequence (P30872 whole entry): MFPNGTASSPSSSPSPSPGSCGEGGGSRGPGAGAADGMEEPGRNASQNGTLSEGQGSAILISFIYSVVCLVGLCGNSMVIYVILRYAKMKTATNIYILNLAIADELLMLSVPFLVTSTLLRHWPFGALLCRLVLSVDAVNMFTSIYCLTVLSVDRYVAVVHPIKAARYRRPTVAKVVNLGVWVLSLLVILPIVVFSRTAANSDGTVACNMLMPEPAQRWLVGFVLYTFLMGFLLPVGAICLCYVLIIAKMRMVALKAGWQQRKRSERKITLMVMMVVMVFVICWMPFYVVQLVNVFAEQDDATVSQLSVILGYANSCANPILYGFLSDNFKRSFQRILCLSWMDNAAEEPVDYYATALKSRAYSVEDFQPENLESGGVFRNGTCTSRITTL

SRIF receptor [5] = test: Displacement of 125I-CGP-23996 from SRIF receptor on AtT-20 cells (Example 13); type: binding, mouse; conditions: for IC50: displacement of 125I-CGP-23996, AtT-20 cells (Example 13), read-out: IC50
[6] = tested on: SRIF receptors present on AtT-20 cells; conditions: radioligand 125I-Tyr11-SRIF; read-out: IC50 against 125I-Tyr11-SRIF; cited from earlier work
SRIF receptor [7] = conditions: radioligand 125I-CGP-23996; read-out: IC50 when 125I-CGP-23996 was the radioligand; cited from earlier work
β2-adrenergic receptor [8] = test: Binding at the β2-adrenergic receptor; conditions: among some sixty-five receptors
[9] = tested on: some sixty-five other receptors; test: Binding at some sixty-five other receptors
[10] = target: T2, human neurokinin-1 receptor (NK1R) (Homo sapiens, UniProt P25103); test: Displacement of 125I-substance P from human NK1R expressed in COS cells (Example 12); type: binding; conditions: for IC50: 125I-substance P, COS cells (Example 12)
T2 construct: expressed in transfected cells; host or cells: COS cells
T2 sequence (P25103 whole entry): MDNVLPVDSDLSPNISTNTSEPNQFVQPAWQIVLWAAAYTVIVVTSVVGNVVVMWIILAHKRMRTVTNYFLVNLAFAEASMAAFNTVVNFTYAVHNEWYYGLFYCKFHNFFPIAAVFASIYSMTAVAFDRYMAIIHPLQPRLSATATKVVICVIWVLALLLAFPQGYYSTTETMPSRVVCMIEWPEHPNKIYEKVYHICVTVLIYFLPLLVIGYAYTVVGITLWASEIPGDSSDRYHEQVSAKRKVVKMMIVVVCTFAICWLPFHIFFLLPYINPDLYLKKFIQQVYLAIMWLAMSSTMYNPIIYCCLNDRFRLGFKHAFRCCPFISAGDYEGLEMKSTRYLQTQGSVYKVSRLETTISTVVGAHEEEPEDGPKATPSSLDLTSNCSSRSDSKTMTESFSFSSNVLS
Protocol: The affinity of a variety of compounds for the substance P receptor was determined employing the following procedure.
To express the cloned human neurokinin-1 receptor (NK1R) transiently in COS, the cDNA for the human NK1R was cloned into the expression vector pCDM9 which was derived from pCDM8 (Invitrogen) by inserting the ampicillin resistance gene (nucleotide 1973 to 2964 from Bluescript SK+) into the Sac II site. Transfection of 20 μg of the plasmid DNA into 10 million COS cells was achieved by electroporation in 800 μl of the transfection buffer ([…], 1.2 mM MgCl2, 2.4 mM K2 HPO4, 0.6 mM KH2PO4, […], 10 mM HEPES pH 7.4) at 260 V and 950 μF using the IBI Genezapper (IBI, New Haven, Conn.). The cells were incubated in 10% fetal calf serum, 2 mM glutamine, 100 U/ml penicillin-streptomycin, and 90% DMEM media (Gibco, Grand Island, N.Y.) in 5% CO2 at 37° C. for three days before the binding assay.
The binding assay of human NK1R expressed in COS cells is based on the use of ^125 I-substance P (^125 I-SP, from DuPont, Boston, Mass.) as a radioactively labeled ligand which competes with unlabeled substance P or any other ligand for binding to the human NK1R. Monolayer cell cultures of COS were dissociated by the non-enzymatic solution (Specialty Media, Lavallette, N.J.) and resuspended in appropriate volume of the bind buffer (50 mM Tris pH 7.5, 5 mM MnCl2, 150 mM NaCl, 0.04 mg/ml bacitracin, 0.004 mg/ml leupeptin, 0.2 mg/ml BSA, 0.01 mM phosphoramidon) such that 200 μl of the cell suspension would give rise to about 10,000 cpm of specific ^125 I-SP binding (approximately 50,000 to 200,000 cells). In the binding assay, 200 μl of cells were added to a tube containing 20 μl of 1.5 to 2.5 nM of ^125 I-SP and 20 μl of unlabeled substance P or any other test compound. The tubes were incubated at 4° C. or at room temperature for 1 hour with gentle shaking. The bound radioactivity was separated from unbound radioactivity by GF/C filter (Brandel, Gaithersburg, Md.) which was pre-wetted with 0.1 polyethylenimine. The filter was washed with 3 ml of wash buffer (50 Tris pH 7.5, 5 mM MnCl2, 150 mM NaCl) three times and its radioactivity was determined by gamma counter.
A variety of compounds were tested according to the COS cell procedure. The concentration of compound required to inhibit the binding of substance P to the human neurokinin-1 receptor by 50% was measured.

NK-1 receptor [11] = target: T1, NK-1 receptor; test: Binding at the NK-1 receptor (Examples 109-110)
β-Adrenergic receptor = test: Displacement of 125I-CYP from β-adrenergic receptor, AtT-20; type: binding, mouse
[12] = TABLE 2 (Example 106), read-out: AtT-20 cells IC50

T1 sequence (P25103 whole entry): as above

Molecule: somatostatin [SRIF, reference compound]
binding / antagonism at the NK-1 receptor (NK-1 receptor [1]): do not bind
hSSTR subtype affinity profile (five hSSTRs): decreases in the order SSTR2>>SSTR1>SSTR3>SSTR4 and SSTR5
IC50 (SRIF receptor [5]): 9.3 nM
IC50 [6]: 0.83 nM
IC50 [2]: ~9.3 nM
IC50 (SRIF receptor [7]): 9.3 nM
binding / antagonism at the β2-adrenergic receptor (β2-adrenergic receptor [4]): do not bind

Molecule: CC(=O)NCCCCCOC[C@H]1O[C@@H](OCCc2c[nH]c3ccccc23)[C@H](OCc2ccccc2)[C@@H](OCc2ccccc2)[C@@H]1OCc1ccccc1 [III-4d]
binding of the β2-adrenergic receptors (β2-adrenergic receptor [8]): did not bind
binding of some sixty-five other receptors [9]: did not bind some sixty-five other receptors
IC50 [10]: 56 nM
activity / affinity at SRIF receptors of AtT-20 cells [3]: inactive
binding of the SRIF receptors ([3]; among some sixty-five receptors): did not bind

Molecule: C[C@@H](O)[C@@H]1NC(=O)[C@H](CCCCN)NC(=O)[C@@H](Cc2c[nH]c3ccccc23)NC(=O)[C@H](Cc2ccccc2)NC(=O)[C@@H]2CCCN2C(=O)[C@H](Cc2ccccc2)NC1=O [L-363,301, reference compound] (HELM PEPTIDE1{P.F.[dW].K.T.F}$PEPTIDE1,PEPTIDE1,1:R1-6:R2$$$V2.0)
binding / antagonism at the NK-1 receptor (NK-1 receptor [1]): do not bind
IC50 (SRIF receptor [5]): 18.7 nM
binding / antagonism at the β2-adrenergic receptor (β2-adrenergic receptor [4]): do not bind

Further lines, with some results ahead:

Ki (hSSTR3): 3300 nM
Ki (hSSTR5): 5100 nM
IC50 ([3]; TABLE 1 (Example 105), read-out: AtT-20 cells 50 IC): 8400 nM
IC50 ([3]; TABLE 3 (Example 108), read-out: AtT-20 IC50): 8400 nM
Ki (hSSTR4): 1700 nM
Ki (hSSTR2): 3100 nM
Ki (hSSTR1): 4100 nM
Molecule: NCCCCCOC[C@H]1O[C@@H](OCCc2c[nH]c3ccccc23)[C@H](OCc2ccccc2)C[C@@H]1OCc1ccccc1 [III-5a, 2-(1H-Indol-3-yl)ethyl 2,4-Di-O-benzyl-3-deoxy-6-O-(5-aminopentyl)-β-D-glucopyranoside]
binding / antagonism at the NK-1 receptor (NK-1 receptor [1]): potent antagonist ligands
hSSTR subtype affinity profile (five hSSTRs): high affinities for hSSTR2 and hSSTR4 and a low affinity for SSTR1
IC50 [2]: ~10000 nM
binding / antagonism at the β2-adrenergic receptor (β2-adrenergic receptor [4]): bind the β2 -adrenergic receptor as antagonists

IC50 (SRIF receptor [5]): 9500 nM
IC50 [10]: 120 nM
IC50 [3, 12]: 14000 nM
Molecule: OCCCCCNC[C@H]1O[C@@H](OCCc2c[nH]c3ccccc23)[C@H](OCc2ccccc2)[C@@H](OCc2ccccc2)[C@@H]1OCc1ccccc1 [III-4e, 2-(1H-Indol-3-yl)ethyl 2,3,4-Tri-O-benzyl-6-amino-6-deoxy-6-N-(5-hydroxypentyl)-β-D-glucopyranoside]
affinity for the SRIF receptor [2]: about the same as those of III-4a and III-5b

binding of the NK-1 receptor (NK-1 receptor [11]): did not bind
IC50 (NK-1 receptor [11]; read-out: affinity at the NK-1 receptor): 150 nM
Ki (hSSTR3): 2800 nM
Ki (hSSTR4): 1100 nM
Molecule: NCCCCCOC[C@H]1O[C@@H](OCCc2c[nH]c3ccccc23)[C@H](OCc2ccccc2)[C@@H](OCc2ccccc2)[C@@H]1OCc1ccccc1 [III-4a, 2-(1H-Indol-3-yl)ethyl 2,3,4-Tri-O-benzyl-6-O-(5-aminopentyl)-β-D-glucopyranoside]
binding / antagonism at the NK-1 receptor (NK-1 receptor [1]): potent antagonist ligands
hSSTR subtype affinity profile (five hSSTRs): high affinities for hSSTR2 and hSSTR4 and a low affinity for SSTR1
IC50 [2]: ~15000 nM
binding / antagonism at the β2-adrenergic receptor (β2-adrenergic receptor [4]): bind the β2 -adrenergic receptor as antagonists

IC50 (SRIF receptor [5]): 1300 nM
IC50 [10]: 180 nM
IC50 [3, 12]: 5100 nM
Molecule: OCCCCCNC[C@H]1O[C@@H](OCCc2c[nH]c3ccccc23)[C@H](OCc2ccccc2)C[C@@H]1OCc1ccccc1 [III-5c, 2-(1H-Indol-3-yl)ethyl 2,4-Di-O-benzyl-3,6-dideoxy-6-amino-6-N-(5-hydroxypentyl)-β-D-glucopyranoside]
affinity for the SRIF receptor [2]: about the same as those of III-4a and III-5b

binding of the β-adrenergic receptor (β-Adrenergic receptor): does not bind the β-adrenergic receptor
Inhibition (β-Adrenergic receptor; 125I-CYP (0.1 nM), AtT-20): 0%
IC50 (SRIF receptor [5]): 40000 nM
IC50 [10]: 400 nM
Molecule: CO[C@@H]1O[C@H](COCCCCCN)[C@@H](OCc2ccccc2)[C@H](OCc2ccccc2)[C@H]1OCc1ccccc1 [Methyl 6-O-(5-aminopentyl)-2,3,4-tri-O-benzyl-β-D-glucopyranoside]
binding by the SRIF receptor (SRIF receptor [5]): is bound by the substance P and SRIF receptors
binding by the substance P receptor [10]: is bound by the substance P and SRIF receptors
